Experiment [1] relates to spindle assembly checkpoint. Put plainly: SAC-Formation - Nocodazole-Induced Assay. The format is cell-based. As to conditions: Homo sapiens; HeLa cells, nocodazole 0.1 μg/ml, 24 h, phosphorylated histone H3 on serine 10. The text has this: The spindle assembly checkpoint assures the proper segregation of chromosomes during mitosis. Upon entry into mitosis, chromosomes begin to condensate which is accompanied by the phosphorylation of histone H3 on serine 10. Dephosphorylation of histone H3 on serine 10 begins in anaphase and ends at early telophase. Accordingly, phosphorylation of histone H3 on serine 10 can be utilized as a marker of cells in mitosis. Nocodazole is a microtubule destabilizing substance. Paclitaxel is a microtubule stabilizing compound. Thus, nocodazole as well as paclitaxel interfere with microtubule dynamics and mobilize the spindle assembly checkpoint. […] The mitotic breakthrough can be detected by the decrease of cells with phosphorylation of histone H3 on serine 10. This decline is used as a marker to determine the capability of compounds of the present invention to induce a mitotic breakthrough. The typical morphological alteration of nuclei with a prematurely completed mitosis after SAC-inhibition can be monitored via image analysis routines supporting those findings.
The nocodazole and paclitaxel variations were used to focus on compounds that are capable of inhibiting a SAC induced by both microtubule destabilization as well as microtubule stabilization. When SAC inducing agents and compounds are given simultaneously, inhibitors that effectively block the SAC during formation or abrogation are identified. When cells are incubated with a SAC inducing agent and the SAC interfering compound is given after a defined time, inhibitors are identified that effectively block SAC abrogation.
Cultivated cells of the human cervical tumor cell line HeLa (ATCC CCL-2) were plated at a density of 1000 cells/well in a 1536-well microtiter plate in 2 μl PAA Ham's F12 Medium supplemented with 1% (v/v) glutamine, 1% (v/v) penicillin, 1% (v/v) streptomycin and 10% (v/v) fetal calf serum. After incubation overnight at 37° C., 10 μl/well nocodazole at a final concentration of 0.1 μg/ml were added to cells. Test compounds solubilized in dimethyl sulfoxide (DMSO) were added at various concentrations (0 μM, as well as in the range of 0.005 μM-20 μM; the final concentration of the solvent DMSO was 0.5% (v/v)). Cells were incubated for 24 h at 37° C. in the presence of test compounds in combination with nocodazole. Thereafter, cells were fixed in 4% (v/v) paraformaldehyde in phosphate buffered saline (PBS) at 4° C. overnight then permeabilized in 0.1% (v/v) Triton X™ 100 in PBS at room temperature for 20 min and blocked in 0.5% (v/v) bovine serum albumin (BSA) in PBS at room temperature for 15 min. After washing with PBS, 5 μl/well antibody solution (anti-phospho-histone H3 clone 3H10, FITC; Millipore, Cat #16-222; 1:1000 dilution) was added to cells, which were incubated for 2 h at room temperature. Afterwards, cells were washed with PBS and 5 μl/well solution of HOECHST 33342 dye (5 μg/ml) was added to cells and cells were incubated 15 min at room temperature in the dark. Cells were washed twice with PBS then covered with PBS and stored at 4° C. until analysis. Images were acquired with a PERKIN ELMER OPERA™ High-Content Analysis reader. Images were analyzed with image analysis software MetaXpress™ from Molecular devices utilizing the Mitotic Index application module. In this assay both labels HOECHST 33342 and phosphorylated Histone H3 on serine 10 were measured. HOECHST 33342 labels the DNA and is used to count the cell number. The staining of phosphorylated Histone H3 on serine 10 determines the number of mitotic cells. […] Otherwise cells were arrested at G2/M phase of the cell cycle progression. The raw assay data were further analyzed by four-parametric hill equation using Genedata's Assay Analyzer and Condoseo software.

The target in experiment [2] is human Bub1 (Homo sapiens (Human), UniProt O43683). Nature of the experiment: Bub1 kinase assay (TR-FRET). In kind it is biochemical. Particulars: 10 μM ATP; read-out: Bub1 avg (IC50 [mol/l]). From the text: Bub1-inhibitory activity of compounds of the present invention was quantified employing the Bub1 TR-FRET assay as described in the following paragraphs.
N-terminally His6-tagged recombinant catalytic domain of human Bub1 (amino acids 704-1085), expressed in insect cells (Hi5) and purified by Ni-NTA affinity chromatography and subsequent size exclusion chromatography, was used as enzyme. As substrate for the kinase reaction the biotinylated peptide biotin-Ahx-VLLPKKSFAEPG (C-terminus in amid form) was used which can be purchased e.g. form the company Biosyntan (Berlin, Germany).
For the assay 50 nl of a 100 fold concentrated solution of the test compound in DMSO was pipetted into a black low volume 384 well microtiter plate (Greiner Bio-One, Frickenhausen, Germany), 2 μl of a solution of Bub1 in aqueous assay buffer [50 mM Tris/HCl pH 7.5, 10 mM magnesium chloride (MgCl2), 200 mM potassium chloride (KCl), 1.0 mM dithiothreitol (DTT), 0.1 mM sodium ortho-vanadate, 1% (v/v) glycerol, 0.01% (w/v) bovine serum albumine (BSA), 0.005% (v/v) Trition X-100 (Sigma), 1× Complete EDTA-free protease inhibitor mixture (Roche)] were added and the mixture was incubated for 15 min at 22° C. to allow pre-binding of the test compounds to the enzyme before the start of the kinase reaction. Then the kinase reaction was started by the addition of 3 μl of a solution of adenosine-tri-phosphate (ATP, 16.7 μM=>final conc. in the 5 μl assay volume is 10 μM) and substrate (1.67 μM=>final conc. in the 5 μl assay volume is 1 μM) in assay buffer and the resulting mixture was incubated for a reaction time of 60 min at 22° C. The concentration of Bub1 was adjusted depending of the activity of the enzyme lot and was chosen appropriate to have the assay in the linear range, typical concentrations were in the range of 200 ng/ml. The reaction was stopped by the addition of 5 μl of a solution of TR-FRET detection reagents (0.2 μM streptavidine-XL665 [Cisbio Bioassays, Codolet, France] and 1 nM anti-phosho-Serine antibody [Merck Millipore, cat. #35-001] and 0.4 nM LANCE EU-W1024 labeled anti-mouse IgG antibody [Perkin-Elmer, product no. AD0077, as an alternative a Terbium-cryptate-labeled anti-mouse IgG antibody from Cisbio Bioassays can be used]) in an aqueous EDTA-solution (50 mM EDTA, 0.2% (w/v) bovine serum albumin in 100 mM HEPES pH 7.5).
The resulting mixture was incubated 1 h at 22° C. to allow the formation of complex between the phosphorylated biotinylated peptide and the detection reagents. Subsequently the amount of phosphorylated substrate was evaluated by measurement of the resonance energy transfer from the Eu-chelate to the streptavidine-XL. Therefore, the fluorescence emissions at 620 nm and 665 nm after excitation at 350 nm was measured in a TR-FRET reader, e.g. a Rubystar or Pherastar (both from BMG Labtechnologies, Offenburg, Germany) or a Viewlux (Perkin-Elmer). The ratio of the emissions at 665 nm and at […] was taken as the measure for the amount of phosphorylated substrate. The data were normalised (enzyme reaction without inhibitor=0% inhibition, all other assay components but no enzyme=100% inhibition).
(In TR-FRET formats the signal depends on donor and acceptor labels being close together.)

Drawing on patent publication US9682995B2, “Amino-substituted isothiazoles” (BAYER PHARMA AKTIENGESELLSCHAFT, priority 2013, dated 2017), this text covers IC50 for 18 compounds.

Chain of human Bub1 (O43683 704-1085): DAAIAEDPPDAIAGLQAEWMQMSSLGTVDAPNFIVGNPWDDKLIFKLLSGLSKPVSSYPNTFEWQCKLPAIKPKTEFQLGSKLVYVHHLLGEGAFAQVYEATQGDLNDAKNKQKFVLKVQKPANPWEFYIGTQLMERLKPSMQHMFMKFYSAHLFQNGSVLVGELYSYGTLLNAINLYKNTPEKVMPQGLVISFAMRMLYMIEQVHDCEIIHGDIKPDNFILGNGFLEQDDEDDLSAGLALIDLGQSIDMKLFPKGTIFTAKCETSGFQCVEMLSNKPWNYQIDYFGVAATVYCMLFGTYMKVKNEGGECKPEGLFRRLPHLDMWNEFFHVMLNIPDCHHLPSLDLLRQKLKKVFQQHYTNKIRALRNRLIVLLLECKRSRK

In the case of `COc1ccc(NC(=O)c2c(C)nsc2Nc2cnc3cccc(C)c3n2)cn1` [Example 22, N-(6-methoxypyridin-3-yl)-3-methyl-5-[(8-methylquinoxalin-2-yl)amino]-1,2-thiazole-4-carboxamide], the IC50 was 210 nM in experiment [1] and greater than 20 µM in experiment [2].
As to `COc1ccc(NC(=O)c2c(C)nsc2Nc2cnc3cc(Cl)ccc3n2)cn1` [Example 23, 5-[(6-Chloroquinoxalin-2-yl)amino]-N-(6-methoxypyridin-3-yl)-3-methyl-1,2-thiazole-4-carboxamide], the figures for the IC50 in experiment [1] and in experiment [2] were 280 nM and greater than 20 µM, respectively.
On the same counts, the results for `COc1ccc(NC(=O)c2c(C)nsc2Nc2nccnc2C#N)cn1` [Example 24, 5-[(3-Cyanopyrazin-2-yl)amino]-N-(6-methoxypyridin-3-yl)-3-methyl-1,2-thiazole-4-carboxamide] are 3800 nM and 3.1 µM.
Taken in the same sequence, the figures for `COc1ccc(NC(=O)c2c(C)nsc2Nc2cc(C#N)ccn2)cn1` [Example 25, 5-[(4-Cyanopyridin-2-yl)amino]-N-(6-methoxypyridin-3-yl)-3-methyl-1,2-thiazole-4-carboxamide] were 2200 nM and greater than 20 µM.
Taken in the same sequence, the figures for `CCOC(=O)c1sc(Nc2snc(C)c2C(=O)Nc2ccccc2CC)nc1C` [Example 26, Ethyl 2-({4-[(2-ethylphenyl)carbamoyl]-3-methyl-1,2-thiazol-5-yl}amino)-4-methyl-1,3-thiazole-5-carboxylate] were 140 nM and greater than 20 µM.
With `Cc1nsc(Nc2cc(C#N)ccn2)c1C(=O)Nc1ccc(F)c(F)c1` [Example 27, 5-[(4-Cyanopyridin-2-yl)amino]-N-(3,4-difluorophenyl)-3-methyl-1,2-thiazole-4-carboxamide], the IC50 in experiment [1] was 110 nM; in experiment [2], greater than 20 µM.
Taken in the same sequence, the figures for `Cc1nsc(Nc2ccc(C#N)cn2)c1C(=O)Nc1ccc(F)c(F)c1` [Example 28, 5-[(5-Cyanopyridin-2-yl)amino]-N-(3,4-difluorophenyl)-3-methyl-1,2-thiazole-4-carboxamide] were 41 nM and greater than 20 µM.
Taken in the same sequence, the figures for `CCOC(=O)c1cnc(Nc2snc(C)c2C(=O)Nc2ccc(OC)nc2)s1` [Example 29, Ethyl 2-({4-[(6-methoxypyridin-3-yl)carbamoyl]-3-methyl-1,2-thiazol-5-yl}amino)-1,3-thiazole-5-carboxylate] were 310 nM and greater than 20 µM.
Taken in the same sequence, the figures for `CCOC(=O)c1sc(Nc2snc(C)c2C(=O)Nc2ccc(OC)nc2)nc1C` [Example 30, Ethyl 2-({4-[(6-methoxypyridin-3-yl)carbamoyl]-3-methyl-1,2-thiazol-5-yl}amino)-4-methyl-1,3-thiazole-5-carboxylate] were 92 nM and greater than 20 µM.
On to `COC(=O)c1ccc(Nc2snc(C)c2C(=O)Nc2ccc(OC)nc2)nc1` [Example 31, Methyl 6-({4-[(6-methoxypyridin-3-yl)carbamoyl]-3-methyl-1,2-thiazol-5-yl}amino)-nicotinate], for which the figures for the IC50 in experiment [1] and in experiment [2] were 5500 nM and greater than 20 µM, respectively.
Taken in the same sequence, the figures for `COC(=O)c1cnc(Nc2snc(C)c2C(=O)Nc2ccc(OC)nc2)cn1` [Example 32, Methyl 5-({4-[(6-methoxypyridin-3-yl)carbamoyl]-3-methyl-1,2-thiazol-5-yl}amino)-pyrazine-2-carboxylate] were 510 nM and greater than 20 µM.
Regarding `CCc1ccccc1NC(=O)c1c(C)nsc1Nc1cnc2cccc(C)c2n1` [Example 33, N-(2-Ethylphenyl)-3-methyl-5-[(8-methylquinoxalin-2-yl)amino]-1,2-thiazole-4-carboxamide], the IC50 in experiment [1] was 200 nM; in experiment [2] it was greater than 20 µM.
On the same counts, the results for `CCc1ccccc1NC(=O)c1c(C)nsc1Nc1nccnc1C#N` [Example 34, 5-[(3-Cyanopyrazin-2-yl)amino]-N-(2-ethylphenyl)-3-methyl-1,2-thiazole-4-carboxamide] are 950 nM and greater than 20 µM.
On the same counts, the results for `CCc1ccccc1NC(=O)c1c(C)nsc1Nc1nc(C)nc2ccccc12` [Example 35, N-(2-Ethylphenyl)-3-methyl-5-[(2-methylquinazolin-4-yl)amino]-1,2-thiazole-4-carboxamide] are 260 nM and greater than 20 µM.
On the same counts, the results for `COc1ccc(NC(=O)c2c(C)nsc2Nc2cccc(C#N)n2)cn1` [Example 37, 5-[(6-Cyanopyridin-2-yl)amino]-N-(6-methoxypyridin-3-yl)-3-methyl-1,2-thiazole-4-carboxamide] are 2400 nM and greater than 20 µM.
`CCc1ccccc1NC(=O)c1c(C)nsc1Nc1nc(C)nc2sccc12` [Example 38, N-(2-Ethylphenyl)-3-methyl-5-[(2-methylthieno[2,3-d]pyrimidin-4-yl)amino]-1,2-thiazole-4-carboxamide]: the IC50 was 690 nM in experiment [1] and greater than 20 µM in experiment [2].
On the same counts, the results for `COc1ccc(NC(=O)c2c(C)nsc2Nc2ccc(C#N)cn2)cn1` [Example 39, 5-[(5-Cyanopyridin-2-yl)amino]-N-(6-methoxypyridin-3-yl)-3-methyl-1,2-thiazole-4-carboxamide] are 1300 nM and greater than 20 µM.
As for `Cc1nsc(Nc2cnc3ccccc3n2)c1C(=O)Nc1ccc(Cl)c(F)c1` [Example 40, N-(4-Chloro-3-fluorophenyl)-3-methyl-5-(quinoxalin-2-ylamino)-1,2-thiazole-4-carboxamide], the IC50 was 45 nM in experiment [1] and greater than 20 µM in experiment [2].
